Reference: US20240116985A1, “STAPLED PEPTIDES AND METHODS THEREOF” (priority 2020, published 2024)

Columns and labels:
[1] = biological target: T1, full-length beta-Catenin (Uniprot ID P35222) (Homo sapiens, UniProt P35222); experiment: Fluorescence polarization IC50 (beta-catenin / 5FAM-TCF4 10-53 competition); type: binding; conditions: fluorescence polarization; read-out: beta-Catenin FP IC50
T1 construct: 10 nM full-length beta-Catenin (Uniprot ID P35222)
T1 sequence (P35222 1-781): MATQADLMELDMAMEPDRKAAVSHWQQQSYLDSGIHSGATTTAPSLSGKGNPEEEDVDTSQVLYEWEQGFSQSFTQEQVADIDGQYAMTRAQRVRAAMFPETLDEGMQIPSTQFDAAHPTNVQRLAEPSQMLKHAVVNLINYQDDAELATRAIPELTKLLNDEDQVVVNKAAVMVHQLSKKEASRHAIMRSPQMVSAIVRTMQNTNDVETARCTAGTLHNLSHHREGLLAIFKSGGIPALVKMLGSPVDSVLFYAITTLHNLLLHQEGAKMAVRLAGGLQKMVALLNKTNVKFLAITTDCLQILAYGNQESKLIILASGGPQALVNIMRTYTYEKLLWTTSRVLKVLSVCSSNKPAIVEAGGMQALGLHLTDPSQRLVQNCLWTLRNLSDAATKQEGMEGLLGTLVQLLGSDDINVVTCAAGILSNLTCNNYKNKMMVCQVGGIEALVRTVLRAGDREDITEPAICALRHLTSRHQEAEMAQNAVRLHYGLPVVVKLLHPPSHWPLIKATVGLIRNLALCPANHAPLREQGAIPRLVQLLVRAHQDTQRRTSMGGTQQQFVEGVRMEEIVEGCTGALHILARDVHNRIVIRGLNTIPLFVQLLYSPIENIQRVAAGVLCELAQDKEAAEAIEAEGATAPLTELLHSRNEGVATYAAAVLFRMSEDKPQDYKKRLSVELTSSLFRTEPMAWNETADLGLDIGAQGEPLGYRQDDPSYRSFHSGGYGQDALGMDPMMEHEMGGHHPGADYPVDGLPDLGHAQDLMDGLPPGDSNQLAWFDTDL

[2] = biological target: T2, beta-catenin/TCF4 engagement (Homo sapiens, UniProt P35222); experiment: Nano-BRET target engagement assay (B-cat-Halo & TCF4-Luc in HEK293 cells); type: cell-based; conditions: absolute IC50; read-out: NanoBRET Abs IC50
T2 construct: expressed in transfected cells; host or cells: HEK293
T2 sequence (P35222 1-781): T1 sequence (P35222 1-781)

Row | Compound | IC50 [1] [nM] | IC50 [2] [nM]
1 | CC(=O)N1CCC[C@]12CC=CCCCC1(CCCC=CCCCOC(=O)N3CC[C@@](C(=O)N[C@@H](Cc4ccsc4)C(=O)N[C@@H](Cc4cccc(Br)c4)C(=O)N[C@@H](CCC(N)=O)C(N)=O)(C3)NC(=O)[C@H](CC(C)C)NC(=O)[C@H](Cc3ccccc3)NC(=O)[C@H](C)NC(=O)[C@H](C)NC(=O)[C@H](Cc3cccc(C(=O)O)c3)NC(=O)[C@H](CC(=O)O)NC1=O)NC(=O)[C@H](CC(C)(C)C)NC(=O)[C@H](CC(=O)O)NC2=O (stereo partly drawn) [I-2307, Ac-PL3-Asp-Npg-B5-Asp-3COOHF-Ala-Ala-Phe-Leu-PyrS2-3Thi-3BrF-Gln-NH2] | 16 | 8900
2 | CC(=O)N1CCC[C@]12CC=CCCCC1(CCCC=CCCCOC(=O)N3CC[C@@](C(=O)N[C@@H](Cc4ccsc4)C(=O)N[C@@H](Cc4cccc(Br)c4)C(=O)N[C@@H](C)C(N)=O)(C3)NC(=O)[C@H](C(C)C)NC(=O)[C@H](Cc3ccccc3)NC(=O)[C@H](C)NC(=O)[C@H](CCC(N)=O)NC(=O)[C@H](Cc3cccc(C(=O)O)c3)NC(=O)[C@H](CC(=O)O)NC1=O)NC(=O)[C@H](CC(C)(C)C)NC(=O)[C@H](CC(=O)O)NC2=O (stereo partly drawn) [I-2308, Ac-PL3-Asp-Npg-B5-Asp-3COOHF-Gln-Ala-Phe-Val-PyrS2-3Thi-3BrF-Ala-NH2] | 8 | 6000
3 | CC(=O)N1CCC[C@]12CC=CCCCC1(CCCC=CCCCOC(=O)N3CC[C@@](C(=O)N[C@@H](Cc4ccsc4)C(=O)N[C@@H](Cc4ccc5ccccc5c4)C(=O)N[C@@H](CCC(N)=O)C(N)=O)(C3)NC(=O)[C@H](CC(C)C)NC(=O)[C@H](Cc3ccccc3)NC(=O)[C@H](C)NC(=O)[C@H](C)NC(=O)[C@H](Cc3cccc(C(=O)O)c3)NC(=O)[C@H](CC(=O)O)NC1=O)NC(=O)[C@H](CC(C)(C)C)NC(=O)[C@H](CC(=O)O)NC2=O (stereo partly drawn) [I-2309, Ac-PL3-Asp-Npg-B5-Asp-3COOHF-Ala-Ala-Phe-Leu-PyrS2-3Thi-2NapA-Gln-NH2] | 17 | 13700
4 | CC(=O)N1CCC[C@]12CC=CCCCC1(CCCC=CCCCOC(=O)N3CC[C@@](C(=O)N[C@@H](Cc4ccsc4)C(=O)N[C@@H](Cc4ccc5ccccc5c4)C(=O)N[C@@H](C)C(N)=O)(C3)NC(=O)[C@H](C(C)C)NC(=O)[C@H](Cc3ccccc3)NC(=O)[C@H](C)NC(=O)[C@H](CCC(N)=O)NC(=O)[C@H](Cc3cccc(C(=O)O)c3)NC(=O)[C@H](CC(=O)O)NC1=O)NC(=O)[C@H](CC(C)(C)C)NC(=O)[C@H](CC(=O)O)NC2=O (stereo partly drawn) [I-2310, Ac-PL3-Asp-Npg-B5-Asp-3COOHF-Gln-Ala-Phe-Val-PyrS2-3Thi-2NapA-Ala-NH2] | 18 | 8900
5 | CC(=O)N1CCC[C@]12CC=CCCCC1(CCCC=CCCCOC(=O)N3CC[C@@](C(=O)N[C@@H](Cc4ccsc4)C(=O)N[C@H](C(=O)N[C@@H](CCC(N)=O)C(N)=O)[C@H](C)c4ccc5ccccc5c4)(C3)NC(=O)[C@H](CC(C)C)NC(=O)[C@H](Cc3ccccc3)NC(=O)[C@H](C)NC(=O)[C@H](C)NC(=O)[C@H](Cc3cccc(C(=O)O)c3)NC(=O)[C@H](CC(=O)O)NC1=O)NC(=O)[C@H](CC(C)(C)C)NC(=O)[C@H](CC(=O)O)NC2=O (stereo partly drawn) [I-2311, Ac-PL3-Asp-Npg-B5-Asp-3COOHF-Ala-Ala-Phe-Leu-PyrS2-3Thi-RbMe2NapA-Gln-NH2] | 5 | 5200
6 | CC(=O)N1CCC[C@]12CC=CCCCC1(CCCC=CCCCOC(=O)N3CC[C@@](C(=O)N[C@@H](Cc4ccsc4)C(=O)N[C@H](C(=O)N[C@@H](C)C(N)=O)[C@H](C)c4ccc5ccccc5c4)(C3)NC(=O)[C@H](C(C)C)NC(=O)[C@H](Cc3ccccc3)NC(=O)[C@H](C)NC(=O)[C@H](CCC(N)=O)NC(=O)[C@H](Cc3cccc(C(=O)O)c3)NC(=O)[C@H](CC(=O)O)NC1=O)NC(=O)[C@H](CC(C)(C)C)NC(=O)[C@H](CC(=O)O)NC2=O (stereo partly drawn) [I-2312, Ac-PL3-Asp-Npg-B5-Asp-3COOHF-Gln-Ala-Phe-Val-PyrS2-3Thi-RbMe2NapA-Ala-NH2] | 5 | 5200
7 | CC(=O)N1CCC[C@]12CC=CCCCC1(CCCC=CCCCOC(=O)N3CC[C@@](C(=O)N[C@@H](Cc4ccsc4)C(=O)N[C@H](C(=O)N[C@@H](CCC(N)=O)C(N)=O)[C@@H](C)c4ccc5ccccc5c4)(C3)NC(=O)[C@H](CC(C)C)NC(=O)[C@H](Cc3ccccc3)NC(=O)[C@H](C)NC(=O)[C@H](C)NC(=O)[C@H](Cc3cccc(C(=O)O)c3)NC(=O)[C@H](CC(=O)O)NC1=O)NC(=O)[C@H](CC(C)(C)C)NC(=O)[C@H](CC(=O)O)NC2=O (stereo partly drawn) [I-2313, Ac-PL3-Asp-Npg-B5-Asp-3COOHF-Ala-Ala-Phe-Leu-PyrS2-3Thi-SbMe2NapA-Gln-NH2] | 22 | 24300
8 | CC(=O)N1CCC[C@]12CC=CCCCC1(CCCC=CCCCOC(=O)N3CC[C@@](C(=O)N[C@@H](Cc4ccsc4)C(=O)N[C@H](C(=O)N[C@@H](C)C(N)=O)[C@@H](C)c4ccc5ccccc5c4)(C3)NC(=O)[C@H](C(C)C)NC(=O)[C@H](Cc3ccccc3)NC(=O)[C@H](C)NC(=O)[C@H](CCC(N)=O)NC(=O)[C@H](Cc3cccc(C(=O)O)c3)NC(=O)[C@H](CC(=O)O)NC1=O)NC(=O)[C@H](CC(C)(C)C)NC(=O)[C@H](CC(=O)O)NC2=O (stereo partly drawn) [I-2314, Ac-PL3-Asp-Npg-B5-Asp-3COOHF-Gln-Ala-Phe-Val-PyrS2-3Thi-SbMe2NapA-Ala-NH2] | 48 | > 20000
9 | CC(=O)N1CCC[C@]12CC=CCCCC1(CCCC=CCCCOC(=O)N3CC[C@@](C(=O)N[C@@H](Cc4ccccc4C(F)(F)F)C(=O)N[C@@H](Cc4csc5ccccc45)C(=O)N[C@@H](C)C(N)=O)(C3)NC(=O)[C@H](CC(C)C)NC(=O)[C@H](Cc3ccccc3)NC(=O)[C@H](C)NC(=O)[C@H](CCC(=O)N3CCC(N4CCCCC4)CC3)NC(=O)[C@H](Cc3cccc(C(=O)O)c3)NC(=O)[C@H](CC(=O)O)NC1=O)NC(=O)[C@H](CC(C)(C)C)NC(=O)[C@H](CC(=O)O)NC2=O (stereo partly drawn) [I-2317, Ac-PL3-Asp-Npg-B5-Asp-3COOHF-[4Pippip]GlnR-Ala-Phe-Leu-PyrS2-2F3MeF-BztA-Ala-NH2] | 12 | 18800
10 | CCS(=O)(=O)N1CCN(C(=O)CC[C@@H]2NC(=O)[C@H](Cc3cccc(C(=O)O)c3)NC(=O)[C@H](CC(=O)O)NC(=O)C3(CCCC=CCCCOC(=O)N4CC[C@@](C(=O)N[C@@H](Cc5ccccc5C(F)(F)F)C(=O)N[C@@H](Cc5csc6ccccc56)C(=O)N[C@@H](C)C(N)=O)(C4)NC(=O)[C@H](CC(C)C)NC(=O)[C@H](Cc4ccccc4)NC(=O)[C@H](C)NC2=O)CCCC=CC[C@]2(CCCN2C(C)=O)C(=O)N[C@@H](CC(=O)O)C(=O)N[C@@H](CC(C)(C)C)C(=O)N3)CC1 (stereo partly drawn) [I-2321, Ac-PL3-Asp-Npg-B5-Asp-3COOHF-[EtSO2Ppz]GlnR-Ala-Phe-Leu-PyrS2-2F3MeF-BztA-Ala-NH2] | 5 | 1700
11 | CC(=O)N1CCC[C@]12CC=CCCCC1(CCCC=CCCCOC(=O)N3CC[C@@](C(=O)N[C@@H](Cc4ccccc4C(F)(F)F)C(=O)N[C@@H](Cc4csc5ccccc45)C(=O)N[C@@H](C)C(N)=O)(C3)NC(=O)[C@H](CC(C)C)NC(=O)[C@H](Cc3ccccc3)NC(=O)[C@H](C)NC(=O)[C@H](CCC(=O)N3CCN(CCCN(C)C)CC3)NC(=O)[C@H](Cc3cccc(C(=O)O)c3)NC(=O)[C@H](CC(=O)O)NC1=O)NC(=O)[C@H](CC(C)(C)C)NC(=O)[C@H](CC(=O)O)NC2=O (stereo partly drawn) [I-2323, Ac-PL3-Asp-Npg-B5-Asp-3COOHF-[Me2NPrPip]GlnR-Ala-Phe-Leu-PyrS2-2F3MeF-BztA-Ala-NH2] | 6 | 17700
12 | CC(=O)N1CC2CC1C(=O)N[C@@H](CC(=O)O)C(=O)N[C@@H](CC(C)(C)C)C(=O)NC1(CCCCCCCCOC(=O)N3CC[C@@](C(=O)N[C@@H](Cc4ccsc4)C(=O)N[C@@H](Cc4csc5ccccc45)C(=O)N[C@@H](CCC(N)=O)C(N)=O)(C3)NC(=O)[C@H](CC(C)C)NC(=O)[C@H](Cc3ccccc3)NC(=O)[C@H](C)NC(=O)[C@H](C)NC(=O)[C@H](CN(CC(=O)O)CC(F)(F)F)NC(=O)[C@H](CC(=O)O)NC1=O)CCCCCCOc1cccc(c1)C(=O)O2 (stereo partly drawn) [I-2328, Ac-HypBzEs3OAllyl-Asp-Npg-B5-Asp-TfeGA-Ala-Ala-Phe-Leu-PyrS2-3Thi-BztA-Gln-NH2] | 170 | > 20000
13 | CC(=O)N1CCC[C@]12CC=CCCCC1(CCCC=CCCCOC(=O)N3CC[C@@](C(=O)N[C@@H](Cc4ccsc4)C(=O)N[C@@H](Cc4csc5ccccc45)C(=O)N[C@@H](CCC(N)=O)C(N)=O)(C3)NC(=O)[C@H]([C@@H](C)O)NC(=O)[C@H](Cc3ccccc3)NC(=O)[C@H](C)NC(=O)[C@H](C)NC(=O)[C@H](Cc3cccc(C(=O)O)c3)NC(=O)[C@H](CC(N)=O)NC1=O)NC(=O)[C@H](CC(C)(C)C)NC(=O)[C@H](CC(=O)O)NC2=O (stereo partly drawn) [I-2336, Ac-PL3-Asp-Npg-B5-Asn-3COOHF-Ala-Ala-Phe-Thr-PyrS2-3Thi-BztA-Gln-NH2] | 19 | 14400
